Like-named read-outs stand apart in the source and are kept apart here.
Biological target: T1, Human TRPV3 (Homo sapiens, UniProt Q8NET8)
T1 construct: expressed in transfected cells; host or cells: CHO cells (G-418 selection)
T1 sequence (Q8NET8 1-790): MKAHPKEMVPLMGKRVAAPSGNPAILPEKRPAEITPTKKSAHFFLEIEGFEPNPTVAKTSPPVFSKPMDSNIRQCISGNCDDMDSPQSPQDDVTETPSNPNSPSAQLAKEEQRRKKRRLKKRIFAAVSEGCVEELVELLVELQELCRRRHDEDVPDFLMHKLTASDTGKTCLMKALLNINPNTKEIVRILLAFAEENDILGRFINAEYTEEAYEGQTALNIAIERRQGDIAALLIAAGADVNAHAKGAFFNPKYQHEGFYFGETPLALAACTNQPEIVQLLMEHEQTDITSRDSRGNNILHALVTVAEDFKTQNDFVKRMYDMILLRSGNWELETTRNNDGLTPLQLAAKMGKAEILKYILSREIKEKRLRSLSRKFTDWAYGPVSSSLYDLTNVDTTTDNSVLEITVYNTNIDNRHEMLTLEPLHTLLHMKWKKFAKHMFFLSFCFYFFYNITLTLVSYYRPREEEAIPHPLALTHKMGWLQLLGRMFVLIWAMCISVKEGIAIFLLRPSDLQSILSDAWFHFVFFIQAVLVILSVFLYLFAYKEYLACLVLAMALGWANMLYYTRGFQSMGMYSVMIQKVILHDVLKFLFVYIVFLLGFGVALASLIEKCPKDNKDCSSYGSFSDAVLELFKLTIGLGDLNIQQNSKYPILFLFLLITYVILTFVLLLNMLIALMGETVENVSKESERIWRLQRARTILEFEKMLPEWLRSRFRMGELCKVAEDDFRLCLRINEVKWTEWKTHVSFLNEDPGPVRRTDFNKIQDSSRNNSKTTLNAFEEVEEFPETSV
Test: Screening for TRPV3 antagonist using the 45Calcium uptake assay (inhibition of 2-APB induced cellular uptake of radioactive calcium)
Type: cell-based
Details: for inhibition at 1 µM: read-out: Percentage inhibition at 1.0 μM; for inhibition at 10 µM: read-out: Percentage inhibition at 10.0 μM; for IC50: class symbols
In short: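 CHO cells stably expressing human TRPV3, preincubated 10 min with test compound, then 2-APB (500 μM final) plus 5 μCi/ml 45Ca2+ for 4 min in DMEM/F-12 with 1.8 mM CaCl2; 0.5% DMSO final. Lysate radioactivity by scintillation counting. IC50 by nonlinear regression of % maximal response; % inhibition at 1.0 and 10.0 μM.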

[1] = 1.0 μM test compound, human TRPV3 expressing CHO cells, 2-APB 500 μM
[2] = 10.0 μM test compound, human TRPV3 expressing CHO cells, 2-APB 500 μM
[3] = human TRPV3 expressing CHO cells, 2-APB 500 μM

| Molecule | inhibition at 1 µM [1] [%] | inhibition at 10 µM [2] [%] | IC50 [3] [nM] | inhibition at 1 µM (CHO) [%] | inhibition at 10 µM (CHO) [%] | Percentage inhibition at 1.0 μM [1] [%] | Percentage inhibition at 10.0 μM [2] [%] |
| --- | --- | --- | --- | --- | --- | --- | --- |
| COc1cccc(/C=C/c2nc3sccn3c(=O)c2-c2ccc(OC(F)(F)F)cc2)c1OCC(C)(C)C [Example 52, 7-[(E)-2-{3-Methoxy-2-neopentyloxyphenyl}-1-ethenyl]-6-[4-(trifluoromethoxy)phenyl]-5H-[1,3]thiazolo[3,2-a]pyrimidin-5-one] | 78.4 | 90.3 | < 250 |  |  |  |  |
| CCOCCOc1c(/C=C/c2nc3sccn3c(=O)c2-c2ccc(OC(F)(F)F)cc2)cccc1OC [Example 53, 7-[(E)-2-{2-(2-Ethoxyethoxy)-3-methoxyphenyl}-1-ethenyl]-6-[4-(trifluoromethoxy)phenyl]-5H-[1,3]thiazolo[3,2-a]pyrimidin-5-one] | 89.9 | 95.9 | < 250 |  |  |  |  |
| COc1cccc(/C=C/c2nc3sccn3c(=O)c2-c2ccc(OCCCC#N)cc2)c1OCC1CC1 [Example 46] |  |  |  | 10 | 52.8 |  |  |
| CCCCCOc1c(/C=C/c2nc3sccn3c(=O)c2-c2ccc(C#N)cc2)cccc1OC [Example 10, 4-{7-[(E)-2-(3-Methoxy-2-pentyloxyphenyl)-1-ethenyl]-5-oxo-5H-[1,3]-thiazolo[3,2-a]pyrimidin-6-yl}benzonitrile] | 74.8 | 92.9 | 250 to 500 |  |  |  |  |
| CCCOc1cccc(/C=C/c2nc3sccn3c(=O)c2-c2ccc(OC(F)(F)F)cc2)c1OCC1CC1 [Example 66, 7-{(E)-2-[2-(Cyclopropylmethoxy)-3-propoxyphenyl}-1-ethenyl]-6-(4-trifluoromethoxy-phenyl)-5H-[1,3]thiazolo[3,2-a]pyrimidin-5-one] | 23.4 | 34.1 |  |  |  |  |  |
| COc1cccc(/C=C/c2nc3sc4ccccc4n3c(=O)c2-c2ccc(OC(F)(F)F)cc2)c1OCC1CC1 [Example 95] | 10.9 | 23.7 |  |  |  |  |  |
| COc1cccc(/C=C/c2nc3sc(Cl)cn3c(=O)c2-c2ccc(N(C)C)cc2)c1OCC(C)C [Example 81, 2-Chloro-6-[4-(dimethylamino)phenyl]-7-[(E)-2-(2-isobutoxy-3-methoxyphenyl)vinyl]-5H-[1,3]thiazolo[3,2-a]pyrimidin-5-one] | 64.3 | 78.5 | 250 to 500 |  |  |  |  |
| CCCOc1c(/C=C/c2nc3sccn3c(=O)c2-c2ccc(OC(F)(F)F)cc2)cccc1OC [Example 54, 7-[(E)-2-(3-Methoxy-2-propoxyphenyl)-1-ethenyl]-6-[4-(trifluoromethoxy)phenyl]-5H-[1,3]thiazolo[3,2-a]pyrimidin-5-one] | 72.8 | 95.3 | < 250 |  |  |  |  |
| 7-[(E)-2-{(3-Cyanopropoxy)-3-methoxy}phenylvinyl]-6-[4-(trifluoromethoxy)phenyl]-5H-[1,3]thiazolo[3,2-a]pyrimidin-5-one [Example 74] |  |  |  |  |  | 30.20 | 86.42 |
| COc1cccc(/C=C/c2nc3sc4ccccc4n3c(=O)c2-c2ccc(C(F)(F)F)cc2)c1OCC1CC1 [Example 91, 2-{(E)-2-[(2-Cyclopropylmethoxy)-3-methoxyphenyl]-1-ethenyl}-3-(4-trifluoromethyl-phenyl)-4H-benzo[4,5][1,3]thiazolo-[3,2-a]pyrimidin-4-one] |  |  |  |  |  | 4.98 | 19.85 |
| N#CCCCOc1cccc(/C=C/c2nc3sccn3c(=O)c2-c2ccc(OC(F)(F)F)cc2)c1OCC1CC1 [Example 65, 7-{(E)-2-[2-(Cyclopropylmethoxy)-3-(3-cyanopropoxy)phenyl]-1-ethenyl}-6-(4-trifluoromethoxyphenyl)-5H-[1,3]thiazolo[3,2-a]pyrimidin-5-one] | 15.4 | 22 |  |  |  |  |  |
| COc1cccc(/C=C/c2nc3sccn3c(=O)c2-c2ccc(C#N)cc2)c1OCCC(C)C [Example 11, 4-{7-[(E)-2-(2-Isopentyloxy-3-methoxyphenyl)-1-ethenyl]-5-oxo-5H-[1,3]thiazolo[3,2-a]pyrimidin-6-yl}benzonitrile] | 76.2 | 90 | < 250 |  |  |  |  |
| COc1cccc(/C=C/c2nc3sc4ccccc4n3c(=O)c2-c2ccc(C#N)cc2)c1OCCC(C)C [Example 88, 4-{2-[(E)-2-[2-(3-Methylbutoxy-3-methoxy]phenyl}-1-ethenyl]-4-oxo-4H-benzo[4,5]-[1,3]thiazolo-[3,2]pyrimidin-3-yl)benzonitrile] |  |  |  |  |  | 32.87 | 51.88 |
| COc1cccc(/C=C/c2nc3sccn3c(=O)c2-c2ccc(C#N)cc2)c1OCC1CCC1 [Example 17, 4-{7-[(E)-2-(2-Cyclobutylmethoxy-3-methoxy)phenyl-1-ethenyl]-5-oxo-5H-[1,3]-thiazolo[3,2-a]pyrimidin-6-yl}benzonitrile] | 73 | 91.1 | < 250 |  |  |  |  |
| COc1cccc(/C=C/c2nc3sccn3c(=O)c2-c2ccc(F)nc2)c1OCC1CC1 [Example 3] |  |  |  |  |  | 20.1 | 89.3 |
| COc1cccc(/C=C/c2nc3sccn3c(=O)c2-c2ccc(C#N)cc2)c1OCC1CCCCC1 [Example 19, 4-{7-[(E)-2-(2-Cyclohexylmethoxy-3-methoxy)phenyl-1-ethenyl]-5-oxo-5H-[1,3]-thiazolo[3,2-a]pyrimidin-6-yl}benzonitrile] | 74.6 | 88.4 | 250 to 500 |  |  |  |  |
| COc1cccc(/C=C/c2nc3sccn3c(=O)c2-c2ccc(C(F)(F)F)cc2)c1OCCCC#N [Example 30] |  |  |  |  |  | 45.2 | 75.9 |
| COc1cccc(/C=C/c2nc3sccn3c(=O)c2-c2ccc(N(C)C)cc2)c1OCC(C)(C)C [Example 42, 6-(4-Dimethylaminophenyl)-7-[(E)-2-(3-methoxy-2-neopentyloxy)phenyl-1-ethenyl]-5H-[1,3]thiazolo[3,2-a]pyrimidin-5-one] | 62.7 | 78.5 |  |  |  |  |  |
| COc1cccc(/C=C/c2nc3sccn3c(=O)c2-c2ccc(C(F)(F)F)cc2)c1OCC(C)C [Example 27, 7-[(E)-2-(2-Isobutoxy-3-methoxyphenyl)-1-ethenyl]-6-[4-(trifluoromethyl)phenyl]-5H-[1,3]thiazolo[3,2-a]pyrimidin-5-one] | 69.6 | 88 | < 250 |  |  |  |  |
| COc1ccc(-c2c(/C=C/c3cccc(OC)c3OCC3CC3)nc3sccn3c2=O)cc1 [Example 43, 7-[(E)-2-(2-Cyclopropylmethoxy-3-methoxyphenyl)-1-ethenyl]-6-(4-methoxy-phenyl)-5H-[1,3]thiazolo[3,2-a]pyrimidin-5-one] | 63.4 | 94 | 500 to 1000 |  |  |  |  |

— US8119647B2, “Fused pyrimidineone compounds as TRPV3 modulators” (Glenmark Pharmaceuticals S.A., priority 2008, dated 2012)
